# Measured values from patent US20240415914A1, “Water Dispersible Cannabinoid Compositions” (priority 2021, published 2024).
# Read-outs that look alike come from different tables or passages of the source.
# What was measured:
# [1] = format: physicochemical; details: stored at room temperature (21-25° C.)
# Protocol: At each time period, 0.05 g of powder was dissolved in 10 ml-15 of ethanol, diluted to fall within the analytical range, and injected into the LCMSMS for analysis.
# [2] = Stability of cannabinoid and Vitamin E components of Beverage 2 (AB Red) stored at 8° C. and 21-25° C., LCMSMS over 570 days
# Protocol: The LCMSMS was calibrated for 0-50 ng/ml cannabinoids with the same resin material used in the preparation of the concentrates. At each time period, 100 μml of beverage was diluted with 10 ml of methanol and injected into the LCMSMS for analysis.
compound,measurement,setting,value
"CCCCCc1cc(O)c2c(c1)OC(C)(CCC=C(C)C)C=C2 (stereo not shown) [CBC, cannabichromene]",Stability in Powder Concentrate (content by LCMSMS),[1]; day 0,0.070 mg/g powder
same,Stability in Powder Concentrate (content by LCMSMS),[1]; day 1,0.072 mg/g powder
same,Stability in Powder Concentrate (content by LCMSMS),[1]; day 2,0.071 mg/g powder
same,Stability in Powder Concentrate (content by LCMSMS),[1]; day 3,0.073 mg/g powder
same,Stability in Powder Concentrate (content by LCMSMS),[1]; day 5,0.070 mg/g powder
same,Stability in Powder Concentrate (content by LCMSMS),[1]; day 8,0.071 mg/g powder
same,Stability in Powder Concentrate (content by LCMSMS),[1]; day 9,0.068 mg/g powder
same,Stability in Powder Concentrate (content by LCMSMS),[1]; day 10,0.071 mg/g powder
same,Stability in Powder Concentrate (content by LCMSMS),[1]; day 11,0.071 mg/g powder
same,Stability in Powder Concentrate (content by LCMSMS),[1]; day 12,0.069 mg/g powder
same,Stability in Powder Concentrate (content by LCMSMS),[1]; day 15,0.073 mg/g powder
same,Stability in Powder Concentrate (content by LCMSMS),[1]; day 16,0.073 mg/g powder
same,Stability in Powder Concentrate (content by LCMSMS),[1]; day 17,0.070 mg/g powder
same,Stability in Powder Concentrate (content by LCMSMS),[1]; day 18,0.072 mg/g powder
same,Stability in Powder Concentrate (content by LCMSMS),[1]; day 19,0.070 mg/g powder
same,Stability in Powder Concentrate (content by LCMSMS),[1]; day 22,0.071 mg/g powder
same,Stability in Powder Concentrate (content by LCMSMS),[1]; day 23,0.069 mg/g powder
same,Stability in Powder Concentrate (content by LCMSMS),[1]; day 24,0.068 mg/g powder
same,Stability in Powder Concentrate (content by LCMSMS),[1]; day 25,0.072 mg/g powder
same,Stability in Powder Concentrate (content by LCMSMS),[1]; day 26,0.071 mg/g powder
same,Stability in Powder Concentrate (content by LCMSMS),[1]; day 29,0.069 mg/g powder
same,Stability in Powder Concentrate (content by LCMSMS),[1]; day 30,0.072 mg/g powder
same,Stability in Powder Concentrate (content by LCMSMS),[1]; day 60,0.068 mg/g powder
same,Stability in Powder Concentrate (content by LCMSMS),[1]; day 90,0.068 mg/g powder
same,Stability in Powder Concentrate (content by LCMSMS),[1]; day 120,0.072 mg/g powder
same,Stability in Powder Concentrate (content by LCMSMS),[1]; day 150,0.072 mg/g powder
same,Stability in Powder Concentrate (content by LCMSMS),[1]; day 180,0.071 mg/g powder
same,Stability in Powder Concentrate (content by LCMSMS),[1]; day 210,0.072 mg/g powder
same,Stability in Powder Concentrate (content by LCMSMS),[1]; day 240,0.068 mg/g powder
same,Stability in Powder Concentrate (content by LCMSMS),[1]; day 270,0.072 mg/g powder
same,Stability in Powder Concentrate (content by LCMSMS),[1]; day 300,0.071 mg/g powder
same,Stability in Powder Concentrate (content by LCMSMS),[1]; day 330,0.069 mg/g powder
same,Stability in Powder Concentrate (content by LCMSMS),[1]; day 360,0.068 mg/g powder
same,Stability in Powder Concentrate (content by LCMSMS),[1]; day 390,0.068 mg/g powder
same,Stability in Powder Concentrate (content by LCMSMS),[1]; day 420,0.069 mg/g powder
same,Stability in Powder Concentrate (content by LCMSMS),[1]; day 450,0.073 mg/g powder
same,Stability in Powder Concentrate (content by LCMSMS),[1]; day 480,0.071 mg/g powder
same,Stability in Powder Concentrate (content by LCMSMS),[1]; day 510,0.069 mg/g powder
same,Stability in Powder Concentrate (content by LCMSMS),[1]; day 540,0.070 mg/g powder
same,Stability in Powder Concentrate (content by LCMSMS),[1]; day 570,0.069 mg/g powder
same,Stability of Cannabinoids in AB Red,"[2]; 8° C., 0 days",0.290 µg/mL
same,Stability of Cannabinoids in AB Red,"[2]; 8° C., 1 days",0.289 µg/mL
same,Stability of Cannabinoids in AB Red,"[2]; 8° C., 2 days",0.292 µg/mL
same,Stability of Cannabinoids in AB Red,"[2]; 8° C., 3 days",0.285 µg/mL
same,Stability of Cannabinoids in AB Red,"[2]; 8° C., 5 days",0.286 µg/mL
same,Stability of Cannabinoids in AB Red,"[2]; 8° C., 8 days",0.286 µg/mL
same,Stability of Cannabinoids in AB Red,"[2]; 8° C., 9 days",0.288 µg/mL
same,Stability of Cannabinoids in AB Red,"[2]; 8° C., 10 days",0.288 µg/mL
same,Stability of Cannabinoids in AB Red,"[2]; 8° C., 11 days",0.284 µg/mL
same,Stability of Cannabinoids in AB Red,"[2]; 8° C., 12 days",0.285 µg/mL
same,Stability of Cannabinoids in AB Red,"[2]; 8° C., 15 days",0.292 µg/mL
same,Stability of Cannabinoids in AB Red,"[2]; 8° C., 16 days",0.283 µg/mL
same,Stability of Cannabinoids in AB Red,"[2]; 8° C., 17 days",0.282 µg/mL
same,Stability of Cannabinoids in AB Red,"[2]; 8° C., 18 days",0.289 µg/mL
same,Stability of Cannabinoids in AB Red,"[2]; 8° C., 19 days",0.287 µg/mL
same,Stability of Cannabinoids in AB Red,"[2]; 8° C., 22 days",0.287 µg/mL
same,Stability of Cannabinoids in AB Red,"[2]; 8° C., 23 days",0.287 µg/mL
same,Stability of Cannabinoids in AB Red,"[2]; 8° C., 24 days",0.291 µg/mL
same,Stability of Cannabinoids in AB Red,"[2]; 8° C., 25 days",0.287 µg/mL
same,Stability of Cannabinoids in AB Red,"[2]; 8° C., 26 days",0.287 µg/mL
same,Stability of Cannabinoids in AB Red,"[2]; 8° C., 29 days",0.284 µg/mL
same,Stability of Cannabinoids in AB Red,"[2]; 8° C., 30 days",0.282 µg/mL
same,Stability of Cannabinoids in AB Red,"[2]; 8° C., 60 days",0.278 µg/mL
same,Stability of Cannabinoids in AB Red,"[2]; 8° C., 90 days",0.287 µg/mL
same,Stability of Cannabinoids in AB Red,"[2]; 8° C., 120 days",0.289 µg/mL
same,Stability of Cannabinoids in AB Red,"[2]; 8° C., 150 days",0.281 µg/mL
same,Stability of Cannabinoids in AB Red,"[2]; 8° C., 180 days",0.285 µg/mL
same,Stability of Cannabinoids in AB Red,"[2]; 8° C., 210 days",0.282 µg/mL
same,Stability of Cannabinoids in AB Red,"[2]; 8° C., 240 days",0.280 µg/mL
same,Stability of Cannabinoids in AB Red,"[2]; 8° C., 270 days",0.284 µg/mL
same,Stability of Cannabinoids in AB Red,"[2]; 8° C., 300 days",0.280 µg/mL
same,Stability of Cannabinoids in AB Red,"[2]; 8° C., 330 days",0.278 µg/mL
same,Stability of Cannabinoids in AB Red,"[2]; 8° C., 390 days",0.282 µg/mL
same,Stability of Cannabinoids in AB Red,"[2]; 8° C., 420 days",0.277 µg/mL
same,Stability of Cannabinoids in AB Red,"[2]; 8° C., 450 days",0.282 µg/mL
same,Stability of Cannabinoids in AB Red,"[2]; 8° C., 480 days",0.274 µg/mL
same,Stability of Cannabinoids in AB Red,"[2]; 8° C., 510 days",0.267 µg/mL
same,Stability of Cannabinoids in AB Red,"[2]; 8° C., 540 days",0.271 µg/mL
same,Stability of Cannabinoids in AB Red,"[2]; 8° C., 570 days",0.266 µg/mL
same,Stability of Cannabinoids in AB Red,"[2]; 21-25° C., 0 days",0.29 µg/mL
same,Stability of Cannabinoids in AB Red,"[2]; 21-25° C., 1 days",0.28 µg/mL
same,Stability of Cannabinoids in AB Red,"[2]; 21-25° C., 2 days",0.28 µg/mL
same,Stability of Cannabinoids in AB Red,"[2]; 21-25° C., 3 days",0.29 µg/mL
same,Stability of Cannabinoids in AB Red,"[2]; 21-25° C., 5 days",0.28 µg/mL
same,Stability of Cannabinoids in AB Red,"[2]; 21-25° C., 8 days",0.28 µg/mL
same,Stability of Cannabinoids in AB Red,"[2]; 21-25° C., 9 days",0.28 µg/mL
same,Stability of Cannabinoids in AB Red,"[2]; 21-25° C., 10 days",0.29 µg/mL
same,Stability of Cannabinoids in AB Red,"[2]; 21-25° C., 11 days",0.29 µg/mL
same,Stability of Cannabinoids in AB Red,"[2]; 21-25° C., 12 days",0.28 µg/mL
same,Stability of Cannabinoids in AB Red,"[2]; 21-25° C., 15 days",0.28 µg/mL
same,Stability of Cannabinoids in AB Red,"[2]; 21-25° C., 16 days",0.28 µg/mL
same,Stability of Cannabinoids in AB Red,"[2]; 21-25° C., 17 days",0.28 µg/mL
same,Stability of Cannabinoids in AB Red,"[2]; 21-25° C., 18 days",0.29 µg/mL
same,Stability of Cannabinoids in AB Red,"[2]; 21-25° C., 19 days",0.29 µg/mL
same,Stability of Cannabinoids in AB Red,"[2]; 21-25° C., 22 days",0.29 µg/mL
same,Stability of Cannabinoids in AB Red,"[2]; 21-25° C., 23 days",0.28 µg/mL
same,Stability of Cannabinoids in AB Red,"[2]; 21-25° C., 24 days",0.29 µg/mL
same,Stability of Cannabinoids in AB Red,"[2]; 21-25° C., 25 days",0.28 µg/mL
same,Stability of Cannabinoids in AB Red,"[2]; 21-25° C., 26 days",0.28 µg/mL
same,Stability of Cannabinoids in AB Red,"[2]; 21-25° C., 29 days",0.29 µg/mL
same,Stability of Cannabinoids in AB Red,"[2]; 21-25° C., 30 days",0.29 µg/mL
same,Stability of Cannabinoids in AB Red,"[2]; 21-25° C., 60 days",0.29 µg/mL
same,Stability of Cannabinoids in AB Red,"[2]; 21-25° C., 90 days",0.28 µg/mL
same,Stability of Cannabinoids in AB Red,"[2]; 21-25° C., 120 days",0.29 µg/mL
same,Stability of Cannabinoids in AB Red,"[2]; 21-25° C., 150 days",0.29 µg/mL
same,Stability of Cannabinoids in AB Red,"[2]; 21-25° C., 180 days",0.28 µg/mL
same,Stability of Cannabinoids in AB Red,"[2]; 21-25° C., 210 days",0.29 µg/mL
same,Stability of Cannabinoids in AB Red,"[2]; 21-25° C., 240 days",0.28 µg/mL
same,Stability of Cannabinoids in AB Red,"[2]; 21-25° C., 270 days",0.29 µg/mL
same,Stability of Cannabinoids in AB Red,"[2]; 21-25° C., 300 days",0.29 µg/mL
same,Stability of Cannabinoids in AB Red,"[2]; 21-25° C., 330 days",0.29 µg/mL
same,Stability of Cannabinoids in AB Red,"[2]; 21-25° C., 390 days",0.28 µg/mL
same,Stability of Cannabinoids in AB Red,"[2]; 21-25° C., 420 days",0.28 µg/mL
same,Stability of Cannabinoids in AB Red,"[2]; 21-25° C., 450 days",0.28 µg/mL
same,Stability of Cannabinoids in AB Red,"[2]; 21-25° C., 480 days",0.28 µg/mL
same,Stability of Cannabinoids in AB Red,"[2]; 21-25° C., 510 days",0.27 µg/mL
same,Stability of Cannabinoids in AB Red,"[2]; 21-25° C., 540 days",0.28 µg/mL
same,Stability of Cannabinoids in AB Red,"[2]; 21-25° C., 570 days",0.27 µg/mL
